Results taken from patent publication US9315531B2, “Titanocene-gold derivatives comprising thiolato ligands” (Research Foundation of the City University of New York, priority 2014, dated 2016).

Legend:
RPTC = experiment: Cell viability assay (XTT), RPTC; type: cell-based; settings: 72 h incubation; human renal proximal tubular cells
Description: Cell Culture: Human renal cell carcinoma lines A498, Caki-1 and UO31, as well as the human prostate carcinoma cell lines DU145 and PC3 were newly obtained for these studies from the American Type Culture Collection (ATCC) (Manassas, Va., USA) and cultured in Roswell Park Memorial Institute (RPMI-1640) (Mediatech Inc., Manassas, Va.) media containing 10% fetal bovine serum (FBS, Life Technologies, Grand Island, N.Y.), 1% Minimum Essential Media (MEM) nonessential amino acids (NEAA, Mediatech) and 1% penicillin-streptomycin (PenStrep, Mediatech). HEK-293T cells were newly purchased from ATCC (Manassas, Va., USA) and maintained in Dulbecco's modified Eagle's medium (DMEM) (Mediatech) supplemented with 10% FBS, 1% NEAA and 1% PenStrep. Normal human renal epithelial cells (RPTC) were purchased from Lifeline Cell Technology (Lifeline Cell Technology, Frederick, Md., USA) and maintained in Lifeline's Renal Life Medium from Lifeline Cell Technology supplemented with 2.4 mM L-glutamine, 5 μg/mL rh insulin, 1.0 nM epinephrine, 10 nM triiodothyronine, 0.1 μg/mL hydrocortisone hemisuccinate, 10 ng/mL rhEGF, 0.50% FBS, 5 μg/mL transferrin PS. All cells were cultured at 37° C. and 5% CO2 in a humidified incubator.
(§1) Cell Viability Assay: Cells were seeded at a concentration of 5000 cells/90 μl per well of either RPMI or DMEM without phenol red and without antibiotics, supplemented with 10% FBS and 2 mM L-glutamine into tissue culture grade 96-well flat bottom microplates (BioLite Microwell Plate, Fisher Scientific, Waltham, Mass., USA) and grown for 24 h at 37° C. in a humidified incubator. Afterwards, the intermediate dilutions of the compounds were added to the wells (10 μL) to obtain a final concentration ranging from 0.1 to 200 μM, and the cells were incubated for 24 h or 72 h. […] The optical absorbance of each well in a 96-well plate was quantified using BioTek ELx808 absorbance microplate reader (BioTek Winooski, Vt.) set at 450 nm wavelength. The percentage of surviving cells was calculated from the ratio of absorbance of treated to untreated cells.

UO31 = experiment: Cell viability assay (XTT), UO31; type: cell-based, human; settings: 72 h
Description: Cell Culture: Human renal cell carcinoma lines A498, Caki-1 and UO31, as well as the human prostate carcinoma cell lines DU145 and PC3 were newly obtained for these studies from the American Type Culture Collection (ATCC) (Manassas, Va., USA) and cultured in Roswell Park Memorial Institute (RPMI-1640) (Mediatech Inc., Manassas, Va.) media containing 10% fetal bovine serum (FBS, Life Technologies, Grand Island, N.Y.), 1% Minimum Essential Media (MEM) nonessential amino acids (NEAA, Mediatech) and 1% penicillin-streptomycin (PenStrep, Mediatech). HEK-293T cells were newly purchased from ATCC (Manassas, Va., USA) and maintained in Dulbecco's modified Eagle's medium (DMEM) (Mediatech) supplemented with 10% FBS, 1% NEAA and 1% PenStrep. […]
as §1, with “incubator.” for “incubator. Afterwards, the intermediate dilutions of the compounds were added to the wells (10 μL) to obtain a final concentration ranging from 0.1 to 200 μM, and the cells were incubated for 24 h or 72 h.”

[1] = Stability in solution (DMSO-d6, CDCl3, DMSO/PBS); type: physicochemical
Description: (§2) Both compound 2 and compound 3 were less acidic than titanocene dichloride and were soluble in DMSO/water, DMSO/PBS and DMSO/media (1:99) mixtures at micromolar concentrations. These compounds were unusually stable methyl-containing titanocene moieties that were stable as solids at room temperature, while exposed to air in CDCl3 solution for at least five days.

[2] = Solubility in DMSO/aqueous mixtures; type: physicochemical; settings: at micromolar concentrations
Description: as §2

Caki-1 cells [3] = experiment: Annexin V/PI apoptosis assay; type: cell-based, human; settings: Caki-1, 6 hours incubation, 10 μM
Protocol: To gain insight concerning the type of cell death that is induced in cancer cell lines, apoptosis assays were performed with Caki-1 cells with compound 2 dissolved in 1% DMSO solution in media. A 1% solution in media (FIG. 7) and staurosporine (FIG. 8) were used as controls. In early stages of apoptosis, one of the significant biochemical features is loss of plasma membrane phospholipid asymmetry due to translocation of phosphatidylserine (PS) from cytoplasmic to extracellular side. This characteristic allows detection of externalized PS by the specific binding of Annexin V (FITC-conjugated). Initiation of cell death will eventually result in the permeabilization of the cell membrane, allowing Pi to stain DNA within the nucleus. […] After incubation during 6 hours with 10 μM of compound 2 necrosis can be clearly proposed.
Annexin V/PI assay: Confluent Caki-1 cells were treated with either […], 0.1% DMSO or 5 μM of staurosporine for 6 h. […] Stained cells were analyzed by flow cytometry using Accuri C6 software (BD Biosciences, San Jose, Calif., USA).

Caki-1 cells [4] = type: cell-based, human; settings: Caki-1, 5 μM
Protocol: Anti-invasive properties were evaluated by using a wound-healing scratch assay.
Cell migration: For wound healing assays, Caki-1 cells were seeded in 6 cm dishes at a density of 0.8×10^6 in complete media, then grown to confluence for twenty-four hours at 37° C. (5% CO2), then cross-shape wounds/scratches were performed in the monolayer using a sterile 10 μl pipette tip. […] To quantify cell migration, the area of the initial wound (T0) is compared with the area of the healing wound at three time points after the scratch is introduced. Percent Migration=[area of original wound−area of wound during healing]/Area of original wound]×100.

plasmid pBR322 DNA = experiment: Electrophoresis mobility shift assay; type: binding; settings: metal/DNAbp ratios 0.25-2.0, 37° C., 20 h
Protocol: Agarose gel electrophoresis assays were performed whereby decreased electrophoretic mobility of both forms were taken as evidence of metal-DNA binding.
Mobility Shift Assay: 10 μL aliquots of pBR322 plasmid DNA (20 μg/mL) in buffer (5 mM Tris/HCl, 50 mM NaClO4, pH=7.39) were incubated with different concentrations of the compounds (2, 3, 4, 5), and titanocene dichloride) (in the range 0.25 and 4.0 metal complex:DNA bp) at 37° C. for 20 h in the dark. Samples of free DNA and cisplatin-DNA were prepared as controls. After the incubation period, the samples were loaded onto the 1% agarose gel. The samples were separated by electrophoresis for 1.5 h at 80 V in Tris-acetate/EDTA buffer (TAE). Afterwards, the gel was stained for 30 min with a solution of GelRed nucleic acid stain.

p90-RSK = experiment: Protein kinase expression in Caki-1 whole cell lysates, p90-RSK; type: cell-based, human; settings: Caki-1, 5 μM, by 12 hours post-treatment
Protocol: Whole cell lysates of Caki-1 cells treated with compounds 2 or 6 were also evaluated for their effects on the expression levels of selected protein kinases, namely p90-RSK, AKT and MAPKAPK3. […] Because all three enzymes have been implicated in promoting cell migration and therefore are strong targets for anti-metastasis drugs, these findings predict that compound 2 would be effective in controlling metastatic potential of renal tumors.
Cell lysis and immunoblotting: Caki-1 cells were seeded into 10-cm dishes at a density of 2.2×10^6 and incubated for 24 hours. […]
The protein concentration was determined with BCA protein dye reagent (Pierce, Fisher Scientific Pittsburgh, Pa.). Samples were denatured with 5×SDS sample buffer (0.25% bromophenol blue, 0.5 M dithiothreitol (DTT), 50% glycerol 50% (v/v), 10% sodium dodecyl sulfate (SDS) followed by heating at 95° C. for 5 minutes. Proteins were separated by SDS-PAGE, transferred to a PVDF membrane (Millipore Corp.), and probed with MAPKAPK-3 antibody (Cell Signaling Technology, Danvers, Mass., USA), as well as β-actin antibody (Cell Signaling Technology, Danvers, Mass., USA). Immunoreactive bands of primary antibodies were detected using HRP goat anti-rabbit and secondary antibodies were detected with peroxidase-conjugated secondary antibody and detected by chemiluminescence (Pierce Biotechnology, Rockford, Ill.).

Substance: [(η-C5H5)2TiMe(μ-mba)Au(PPh3)] [Compound 2]
- IC50 (RPTC): 2670 ± 120 nM
- IC50 UO31 (UO31): nanomolar range
- half-life in DMSO-d6 ([1]; DMSO-d6): eight
- half-life fold larger than corresponding compound 6 / compound 7 ([1]; DMSO-d6, same solvent): sixteen
- UV-vis spectra over time ([1]; micromolar concentration in 1:99 DMSO/PBS, 23 h, physiological pH): did not change over time
- solubility in DMSO/water, DMSO/PBS and DMSO/media (1:99) mixtures [2]: soluble
- type of cell death induced (Caki-1 cells [3]): necrosis
- inhibition of migration (Caki-1 cells [4]): complete inhibition of migration
- effect on electrophoretic mobility of plasmid DNA forms (plasmid pBR322 DNA): did not affect the mobility
- expression of p90-RSK (p90-RSK): dramatic decreases in expression
